Assay results reported in PubChem BioAssay (NCI).
“And” between values parts separate entries of the source, which are not always exact repeats. Equal values may be shown once.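 Results reflect a 48-hour exposure of cells in 96-well plates to compound at five concentrations. GI50: concentration for 50% inhibition of growth. TGI is the concentration that stops growth completely.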

Assays:
Test in all cases: NCI tumour cell line growth inhibition, 48 h
EKVX NSCLC = tested on: EKVX NSCLC
SNB-75 CNS = tested on: SNB-75 CNS
CAKI-1 renal = tested on: CAKI-1 renal
A549 NSCLC = tested on: A549 NSCLC
RPMI-8226 leukemia = tested on: RPMI-8226 leukemia
HOP-92 NSCLC = tested on: HOP-92 NSCLC
UO-31 renal = tested on: UO-31 renal
HS 578T breast = tested on: HS 578T breast
ACHN renal = tested on: ACHN renal
RXF 393 renal = tested on: RXF 393 renal

| Structure (SMILES) | GI50 (EKVX NSCLC) | TGI (EKVX NSCLC) | GI50 (SNB-75 CNS) | TGI (SNB-75 CNS) | GI50 (CAKI-1 renal) | TGI (CAKI-1 renal) | GI50 (A549 NSCLC) | TGI (A549 NSCLC) | GI50 (RPMI-8226 leukemia) | TGI (RPMI-8226 leukemia) | GI50 (HOP-92 NSCLC) | TGI (HOP-92 NSCLC) | GI50 (UO-31 renal) | TGI (UO-31 renal) | GI50 (HS 578T breast) | TGI (HS 578T breast) | GI50 (ACHN renal) | TGI (ACHN renal) | GI50 (RXF 393 renal) | TGI (RXF 393 renal) |
| --- | --- | --- | --- | --- | --- | --- | --- | --- | --- | --- | --- | --- | --- | --- | --- | --- | --- | --- | --- | --- |
| Fc1cccc(COc2ccc(Nc3ncnc4sc(-c5ccco5)cc34)cc2Cl)c1 | > 25 µM | > 25 µM | > 25 µM | > 25 µM | > 25 µM | > 25 µM | > 25 µM | > 25 µM | > 25 µM | > 25 µM | > 25 µM | > 25 µM | > 25 µM | > 25 µM | > 25 µM | > 25 µM | > 25 µM | > 25 µM | > 25 µM | > 25 µM |
| COc1ccc(C(=O)N2c3ccccc3Sc3ccccc32)c(F)c1 | 2.72 µM | > 100 µM | 0.288 µM | 34 µM | 0.584 µM | > 100 µM | 1.19 µM | > 100 µM | 0.922 µM | 63 µM | 0.238 µM | 59.7 µM | 3.78 µM | > 100 µM | 0.377 µM | > 100 µM | 0.831 µM | > 100 µM | 0.764 µM | > 100 µM |
| CC1=C(C(=O)NC2CCCCC2)CC(C(=O)NC2CCCCC2)=C(C)N1 | – | > 100 µM | – | 64.9 µM | – | > 100 µM | – | > 100 µM | – | > 100 µM | – | > 100 µM | – | > 100 µM | – | > 100 µM | – | > 100 µM | – | > 100 µM |
| COc1cc(-c2csc(NC(=O)c3cc(C(F)(F)F)cc(C(F)(F)F)c3)n2)cc(OC)c1OC | 2.47 µM | > 100 µM | 2.83 µM | > 100 µM | 2.63 µM | > 100 µM | 2.58 µM | > 100 µM | 1.38 µM | 4.05 µM | 0.848 µM | 4.11 µM | 2.57 µM | > 100 µM | 3.14 µM | > 100 µM | 3.42 µM | > 100 µM | 1.96 µM | 8.94 µM |
| Nc1cc2c3c(cccc3c1)NC2=O | – | > 100 µM | – | > 100 µM | – | > 100 µM | – | > 100 µM | – | > 100 µM | – | > 100 µM | – | > 100 µM | – | > 100 µM | – | > 100 µM | – | > 100 µM |
| Cc1cccc(NC(=O)c2sc3nc4c(cc3c2N)CCCC4)c1C | 0.708 µM | > 100 µM | 0.173 µM | – | 0.491 µM | > 100 µM | 0.612 µM | > 100 µM | 0.354 µM | > 100 µM | 0.7 µM | > 100 µM | – | > 100 µM | 0.351 µM | > 100 µM | 0.68 µM | > 100 µM | 0.233 µM | 0.733 µM |
| CC1(C)O[C@H]2OC3CCC(=O)CC3(O)[C@H]2O1 (stereo partly specified) | – | > 100 µM | – | > 100 µM | – | > 100 µM | – | > 100 µM | – | > 100 µM | – | > 100 µM | – | > 100 µM | – | > 100 µM | – | > 100 µM | – | > 100 µM |
| C[n+]1cc2c3c(ccc2c2ccc4cc5c(cc4c21)OCO5)OCO3 | 1.33 µM | 2.65 µM | 1.01 µM | 2.17 µM | 0.735 µM | 2.13 µM | 0.322 µM | 1.15 µM | 0.365 µM | 1.88 µM | 0.584 µM | 2.05 µM | 0.359 µM | 1.7 µM | 2.11 µM | > 24.6 µM | 0.788 µM | 2.09 µM | 0.351 µM | 1.32 µM |
| O=C(Nc1ccc(OC(F)(F)F)cc1)c1sccc1NCc1ccnc2ccccc12 | 2.35 µM | > 100 µM | 1.88 µM | 26.5 µM | 1.75 µM | 19.3 µM | 4.11 µM | > 100 µM | 3.32 µM | 29.8 µM | 2.5 µM | 19 µM | 2.34 µM | 26.1 µM | 3.39 µM | 26 µM | 2.56 µM | > 100 µM | 1.8 µM | 6.96 µM |
| CSc1ccc(/C=C2\CNC/C(=C\c3ccc(SC)cc3)C2=O)cc1 | 150 µg/mL | > 371 µM and 150 µg/mL | 23.2 µM and 7.91 µg/mL | 86.4 µM and 47.5 µM and 27.9 µg/mL | 90.3 µg/mL | 150 µg/mL | 150 µg/mL | > 371 µM and 150 µg/mL | 61.9 µg/mL | > 371 µM and 150 µg/mL | 31.9 µM and 27 µg/mL | 233 µM and 83.2 µg/mL | 150 µg/mL | > 371 µM and 150 µg/mL | – | > 371 µM | – | > 371 µM | 74 µM and 10.8 µg/mL | 81.1 µM and 34.2 µg/mL |
| CS(=O)(=O)c1ccc(Cl)c([N+](=O)[O-])c1 | 18.5 µM | 38.1 µM | 15.3 µM | 29.5 µM | 2.05 µM | 4.3 µM | 19.3 µM | 41.1 µM | 25.5 µM | 70 µM | 18.3 µM | 35 µM | 1.97 µM | 4.04 µM | 26 µM | 89.1 µM | 16 µM | 29.7 µM | 11.9 µM | 24.5 µM |
